Source: US20260183393A1, “IMMUNOSUPPRESSANT-RESISTANT MODIFIED ALLOGENEIC MODIFIED IMMUNE CELLS AND METHODS FOR USE THEREOF” (Beam Therapeutics Inc., priority 2023, published 2026)

Columns and labels:
[1] = test system: T cell-driven rejection of allogeneic HLA-I^+ CAR-T cells; assay: HIS mouse-driven allorejection model, 4CAR-T cell persistence; type: in vivo, human immune system (HIS) mice; conditions: for rejection of peripheral allogeneic HLA^+ CAR-T cells: RPM 1 mg kg-1 or TAC 10 mg kg-1 daily intraperitoneal for 2 weeks, 1- and 2-weeks post-treatment initiation
Method: Female (aged 6-8 weeks) NOD.Cg-Prkdc^scidIL2rg^tm1Wjl/SzJ (NSG) mice (Jackson Laboratory) were maintained in a pathogen-free facility. Briefly, to generate BLT humanized mice, NSG mice were anesthetized and whole-body irradiated (2 Gy), and then implanted with 1 mm^3 fragments of human fetal liver and thymus tissue beneath the murine kidney capsule. Following, 1×10^5 autologous fetal liver-derived CD34^+ hematopoietic stem cells (HSCs) were intravenously injected within 6 hours of transplantation. Beam Therapeutics commercially obtained female NOD-Prkdc^em26Ca52 IL2rg^em26CD22/NjuCrl (NCG) CD34^+ humanized (huNCG) mice from Charles River and female (aged 6-8 weeks) NSG-Tg(IL15)1Sz/SzJ (NSG-IL15tg) mice from Jackson Laboratory. Mice were maintained in a pathogen-free facility at CRADL. Briefly, huCD34-NCG mice were generated from female (aged 4-6 weeks) NCG mice that were myeloablated and then intravenously infused with human umbilical cord blood-derived CD34^+ stem cells from a qualified source. Humanized NK (huNK) mice were generated by supplementing the water of NSG-IL-15tg with Baytril (Bayer) for 1 week followed by whole-body irradiation (2 Gy). 5×10^6 primary human CD56^+ NK cells were then intravenously injected 24 hours later and permitted to engraft. At both facilities, mice were housed in microisolator cages and fed autoclaved food and water. Animal rooms were maintained at 72±2° F., 30-70% relative humidity and were on a 12:12 h light/dark cycle. Human reconstitution was assessed from 12-17 weeks post-transplant in BLT and huNCG mice, and 2-3 weeks post-transplant in huNK mice. […]
For the studies described in FIGS. 16A to 16J, BLT mice were used Cohort #2 (n=12) and Cohort #5 (n=13), and huNCG mice were used in Cohort #1 (n=10), Cohort #3 (n=12) and Cohort #4 (n=10). […] Persistence of 4CAR-T cells was monitored at 1-day post-T cell infusion and weekly thereafter via blood draws from the retro-orbital sinus or submandibular vein. […]

JeKo-1.Luc cells = assay: Anti-tumor efficacy model, JeKo-1.Luc; type: in vivo, NSG mice; conditions: RPM 1 mg kg^−1 daily for 2 weeks
Method: Immunocompromised NOD scid gamma (NSG) mice were implanted with 5E5 Jeko-1 tumor cells and the tumor cells were allowed to engraft for 6 days. After the six days of engraftment, 1E6 unedited or edited 19CAR-T cells were infused into tumor bearing mice (N=8 mice evaluated for each experimental condition) and administered daily for 2 weeks (dotted vertical lines) either a vehicle (5% PEG400+5% Tween80) or tacrolimus (10 mg/kg in 5% PEG400+5% Tween80). Tumor burden was assessed twice per week by measuring bioluminescence using an IVIS® spectral imaging instrument. In FIGS. 13A and 13B, each data point represents a measurement taken for an individual mouse.
For the study described in FIGS. 18A to 18G, NSG mice were intravenously injected with 5×10^5 JeKo-1.Luc cells at day 0. On day 7, mice initiated daily intraperitoneal injections of VEH, RPM (1 mg kg^−1), or TAC (10 mg kg^−1) for 2 weeks. […] For all studies, tumor burden was measured every 3-4 days post-implant by bioluminescence imaging (IVIS Spectrum, Spectral Instruments Imaging) 30 minutes after intraperitoneally injecting mice with 150 mg kg^−1 XenoLight D-Luciferin (PerkinElmer). The acquisition time was automatically determined by the instrument for each exposure, and quantification of flux from imaging datasets was performed with the Living Image Studio software (Perkin Elmer). […]

JeKo-1 = assay: Cell growth kinetics with rapamycin, JeKo-1; type: cell-based, human; conditions: RPM at different concentrations
Method: (§1) FIGS. 26A to 26E provide histograms and plots showing malignant B cell lines were sensitive to Rapamycin treatment in vitro. FIG. 26A provides histograms showing geometric median fluorescent intensity (MFI) of phosphorylated mTOR (pS2448), S6 (pS235/[…]) and 4EBP1 (pT36/T45) in JeKo-1, Raji and Nalm6 cell lines, as well as primary human monocytes and bulk lymphocytes. FIGS. 26B to 26D relate to an experiment where JeKo-1, Raji and Nalm6 cells were treated with DMSO or Rapamycin (RPM) and then analyzed for phosphorylation level of mTOR (FIG. 26B), S6 (FIG. 26C) and 4EBP1 (FIG. 26D). FIG. 26E provides plots showing JeKo-1, Raji and Nalm6 cell growth kinetics after treatment with DMSO or RPM at different concentrations. Symbols indicate mean and error bars show ±s.e.m.

Raji = assay: Cell growth kinetics with rapamycin, Raji; type: cell-based, human; conditions: RPM at different concentrations
Method: as §1

SMILES | rejection of peripheral allogeneic HLA^+ CAR-T cells [1] | cumulative allogeneic HLA^+ CAR-T cell persistence ([1]; during the treatment window and post-treatment withdrawal, AUC) | JeKo-1 growth in control mice (JeKo-1.Luc cells) | in vitro proliferation (JeKo-1) | in vitro proliferation (Raji)
C=CC[C@@H]1/C=C(\C)C[C@H](C)C[C@H](OC)[C@H]2O[C@@](O)(C(=O)C(=O)N3CCCC[C@H]3C(=O)O[C@H](/C(C)=C/[C@@H]3CC[C@@H](O)[C@H](OC)C3)[C@H](C)[C@@H](O)CC1=O)[C@H](C)C[C@@H]2OC [tacrolimus, Tacrolimus] | significantly mitigated rejection | improved cumulative allogeneic HLA^+ CAR-T cell persistence | – | – | –
CO[C@H]1C[C@@H]2CC[C@@H](C)[C@@](O)(O2)C(=O)C(=O)N2CCCC[C@H]2C(=O)O[C@H]([C@H](C)C[C@@H]2CC[C@@H](O)[C@H](OC)C2)CC(=O)[C@H](C)/C=C(\C)[C@@H](O)[C@@H](OC)C(=O)[C@H](C)C[C@H](C)/C=C/C=C/C=C/1C [rapamycin, Rapamycin] | significantly mitigated rejection | – | mitigated JeKo-1 growth in control mice | inhibited in vitro proliferation | inhibited in vitro proliferation
